Measurements: patent US20080227798A1, “POLYMORPHS OF SUCCINATE SALT OF 2-[6-(3-AMINO-PIPERIDIN-1-YL)-3-METHYL-2,4-DIOXO-3,4-DIHYDRO-2H-PYRIMIDIN-1-YLMETHY]-4-FLUOR-BENZONITRILE AND METHODS OF USE THEREFOR” (priority 2006, published 2008)
Entries after “also recorded” stand apart in the source; their conditions may differ.

Legend:
Assay type in all cases: physicochemical
[1] = Relative humidity stressing experiments
From the text: Samples of Compound I were placed uncovered in approximately 58%, 88%, and 97% relative humidity jars. The samples were stored in the jars for approximately 8 days. The solids were collected and analyzed by XRPD for form identification. […] An aliquot of a mixture of Form A+B was stressed at 88% relative humidity for 23 days. Amorphous Form was stressed at 58% and 88% relative humidity for 23 days.

[2] = Thermogravimetric analysis (TGA)
Experimental: Thermogravimetric (TG) analyses were performed using a TA Instruments 2950 thermogravimetric analyzer. Each sample was placed in an aluminum sample pan and inserted into the TG furnace. The furnace was first equilibrated at 25° C., then heated under nitrogen at a rate of 10° C./min, up to a final temperature of 350° C. Nickel and Alumel™ were used as the calibration standards.

[3] = Moisture sorption/desorption analysis
Experimental: Moisture sorption/desorption data were collected on a VTI SGA-100 Vapor Sorption Analyzer. Sorption and desorption data were collected over a range of 5% to 95% relative humidity (RH) at 10% RH intervals under a nitrogen purge. Samples were not dried prior to analysis. Equilibrium criteria used for analysis were less than 0.0100% weight change in 5 minutes, with a maximum equilibration time of 3 hours if the weight criterion was not met. Data were not corrected for the initial moisture content of the samples. NaCl and PVP were used as calibration standards. Moisture sorption and desorption study was conducted on a sample of Form A+B. The sample was prepared by crashed cooling crystallization (Example 3, section A.6) of the polymorphic forms from a ethanol:water (95:5) solution of Compound I. The moisture sorption and desorption study was conducted according to the procedures outlined in Example 3, section B.10. The data collected is plotted in FIG. 13 and summarized in Table L. Moisture sorption and desorption study was conducted on a sample of Form E. The sample was prepared by solvent/antisolvent crystallization (Example 3, section A.7) by the addition of acetonitrile to Compound I in water. The moisture sorption and desorption study was conducted according to the procedures outlined in Example 3, section B.10. The data collected is plotted in FIG. 23 and summarized in Table M. Moisture sorption and desorption study was conducted on a sample of Amorphous Form. The sample was prepared by lyophilolization of a solution of Compound I in water (Example 3, section A.9). The moisture sorption and desorption study was conducted according to the procedures outlined in Example 3, section B.10.

[4] = Dehydration experiment
From the text: Hydrated samples of Compound I were dehydrated at ambient conditions (2 days) and in an ambient temperature vacuum oven (1 day). The solids were collected and analyzed by XRPD for form identification.
Aliquots of Form A+B of Compound I were stored at ambient condition for two days and in an ambient temperature vacuum over for one day. The solids were collected and analyzed by XRPD and confirmed to be Form A.

[5] = Slurry interconversion studies
From the text: An excess amount of Compound I was slurried in test solvent on a rotating wheel for approximately 5 or 7 days. The solids were typically collected by vacuum filtration, air dried in the hood, and analyzed by XRPD for form identification.
Samples of mixture of Form A and Form B of Compound I were slurried in water and THF:water (9:1), for up to 13 days.

[6] = Thermogravimetric-infrared (TG-IR) analysis
From the text: Thermogravimetric infrared (TG-IR) analyses were acquired on a TA Instruments thermogravimetric (TG) analyzer model 2050 interfaced to a Magna 560® Fourier transform infrared (FT-IR) spectrophotometer (Thermo Nicolet) equipped with an Ever-Glo mid/far IR source, a potassium bromide (KBr) beamsplitter, and a deuterated triglycine sulfate (DTGS) detector. The TG instrument was operated under a flow of helium at 90 and 10 cc/min for the purge and balance, respectively. Each sample was placed in a platinum sample pan, inserted into the TG furnace, accurately weighed by the instrument, and the furnace was heated from ambient temperature to 250° C. at a rate of 20° C./min. The TG instrument was started first, immediately followed by the FT-IR instrument. Each IR spectrum represents 32 co-added scans collected at a spectral resolution of 4 cm^−1. A background scan was collected before the beginning of the experiment. Wavelength calibration was performed using polystyrene. The TG calibration standards were nickel and Alumel™. Volatiles were identified from a search of the High Resolution Nicolet TGA Vapor Phase spectral library.

Structure (SMILES): Cn1c(=O)cc(N2CCC[C@@H](N)C2)n(Cc2ccccc2C#N)c1=O.O=C(O)CCC(=O)O [Form A]
- stability at ambient conditions ([1]; ambient conditions, conclusion from characterization data): stable
- form by XRPD after relative humidity stressing ([1]; approximately 50% relative humidity, 29 days): Form A
- form by XRPD after relative humidity stressing ([1]; approximately 58% relative humidity, 29 days): did not exhibit form changes
- form by XRPD after relative humidity stressing ([1]; approximately 97% relative humidity, 29 days): did not exhibit form changes; also recorded: Form A
- TGA weight loss ([2]; heated from 25° C. to 165° C.): insignificant weight loss

Structure (SMILES): Cn1c(=O)cc(N2CCC[C@@H](N)C2)n(Cc2cc(F)ccc2C#N)c1=O.O=C(O)CCC(=O)O [Form A+B]
- reversible weight change on sorption/desorption [3]: 1.2%
- weight gain on sorption ([3]; 5-95% RH): 1.2% weight gain from 5-95% RH
- weight lost on desorption ([3]; 95-5% RH): 1.2% weight lost from 95-5% RH
- Weight % chg ([3]; Samp RH 4.83%, 25.10° C., elapsed 445.9 min (desorption)): −0.658%
- Weight % chg ([3]; Samp RH 5.14%, 25.05° C., elapsed 91.5 min): −0.665%
- Weight % chg ([3]; Samp RH 14.88%, 25.04° C., elapsed 137.8 min (sorption)): −0.184%
- Weight % chg ([3]; Samp RH 14.96%, 25.09° C., elapsed 359.7 min (desorption)): 0.020%
- Weight % chg ([3]; Samp RH 25.03%, 25.07° C., elapsed 165.5 min (sorption)): 0.004%
- Weight % chg ([3]; Samp RH 25.11%, 25.09° C., elapsed 338.5 min (desorption)): 0.149%
- Weight % chg ([3]; Samp RH 34.82%, 25.06° C., elapsed 179.7 min (sorption)): 0.098%
- Weight % chg ([3]; Samp RH 34.92%, 25.06° C., elapsed 319.3 min (desorption)): 0.237%
- Weight % chg ([3]; Samp RH 44.88%, 25.06° C., elapsed 196.2 min (sorption)): 0.208%
- Weight % chg ([3]; Samp RH 45.07%, 25.07° C., elapsed 307.3 min (desorption)): 0.299%
- Weight % chg ([3]; Samp RH 54.95%, 25.06° C., elapsed 208.7 min (sorption)): 0.284%
- Weight % chg ([3]; Samp RH 55.02%, 25.07° C., elapsed 296.5 min (desorption)): 0.353%
- Weight % chg ([3]; Samp RH 62.77%, 25.03° C., elapsed 0.1 min (start)): 0.000%
- Weight % chg ([3]; Samp RH 64.94%, 25.04° C., elapsed 285.2 min (desorption)): 0.406%
- Weight % chg ([3]; Samp RH 65.00%, 25.08° C., elapsed 219.7 min (sorption)): 0.347%
- Weight % chg ([3]; Samp RH 75.01%, 25.05° C., elapsed 231.9 min (sorption)): 0.406%
- Weight % chg ([3]; Samp RH 75.35%, 25.08° C., elapsed 274.2 min (desorption)): 0.456%
- Weight % chg ([3]; Samp RH 84.92%, 25.09° C., elapsed 243.8 min (sorption)): 0.466%
- Weight % chg ([3]; Samp RH 85.01%, 25.08° C., elapsed 265.2 min (desorption)): 0.510%
- Weight % chg ([3]; Samp RH 94.67%, 25.08° C., elapsed 256.6 min (sorption)): 0.563%
- form by XRPD after relative humidity stressing ([1]; 58% relative humidity, 23 days): Form A
- form by XRPD after relative humidity stressing ([1]; 88% relative humidity, 23 days): Form A
- form by XRPD after dehydration ([4]; ambient conditions, two days): converted to Form A
- form by XRPD after dehydration ([4]; vacuum oven at ambient temperature, one day): converted to Form A
- form by XRPD after slurry ([5]; slurried in water and THF:water (9:1), up to 13 days): either Form A or Form A+B
- form after slurry ([5]; slurried in water, water removed by evaporation): converted to Form A
- water content consistent with weight loss ([6]; from 2.4% weight loss): 0.5 to 1.0 moles of water

Structure (SMILES): Cn1c(=O)cc(N2CCC[C@@H](N)C2)n(Cc2cc(F)ccc2C#N)c1=O.O=C(O)CCC(=O)O [A + B]
- Final Form after slurry (XRPD) ([5]; THF:H2O 9:1, 13 days (approximate)): A + B

Structure (SMILES): Cn1c(=O)cc(N2CCC[C@@H](N)C2)n(Cc2cc(F)ccc2C#N)c1=O.O=C(O)CCC(=O)O [Form D]
- TGA total weight loss ([2]; equilibration plus 25° C. to 85° C.): approximately 30%
- water content consistent with total weight loss ([2]; from about 30% total weight loss): approximately 11 moles of water
- TG-IR weight loss ([6]; heated from 20° C. to 100° C., evaporation of water): 24.0% weight loss when heated from
